Results reported in patent US20160340633A1, “PLURIPOTENT STEM CELL EXPANSION AND PASSAGE USING A ROCKING PLATFORM BIOREACTOR” (General Electric Company, priority 2015, published 2016).

Test system: CT2 human embryonic stem cells
Experiment: Expansion of slicer-passaged pluripotent stem cell aggregates cultured with or without Y27632 ROCK inhibitor
Assay type: cell-based
Description: In one example, aggregate formation and cell expansion was measured after passage with Accutase™ or with the square grid or hexagon grid slicer. After passaging, CT2 human embryonic stem cells were seeded in 6 well plates in 2 ml mTeSR1 at either 4×10̂5 cells per mL or 1.5×10̂6 cells per mL, with or without 10 uM Y27632 ROCK inhibitor. The plates were maintained on a Boekel Scientific Rocker II 260350 rocker platform in a standard cell culture incubator at 37 degrees C., 5% CO2, with culture conditions of 20 rocks per minute at a 15 degree rock angle. Aggregates formed from the accutased cells after overnight culture. Each day, the spent mTeSR1 was completely removed and replaced with fresh mTeSR1 without Y27632 ROCK inhibitor. On day 4, the aggregates were recovered, dissociated with Accutase™ and enumerated using a Nucleocounter NC200. […]
Aggregates were passed across the slicer in a flow stream consisting of 100 mL to 1 L volumes. […] The cell aggregate concentration used to pass through the slicer was determined to influence the recovery of sliced cell aggregates at high viability. […] It was determined that slicing of cell aggregate concentrations below about 3×10̂6 cells per mL produced higher viability samples with higher recovery than cell concentrations greater than about 3×10̂6 cells per mL. […]

## C[C@@H](N)[C@H]1CC[C@H](C(=O)Nc2ccncc2)CC1 [Y27632 ROCK inhibitor, Y-27632]
10 uM at seeding, 4×10^5 or 1.5×10^6 cells per mL, 6 well plates, rocking, counted day 4, square or hexagon grid slicer
  expansion rates of slicer passaged aggregates cultured with or without Y27632 ROCK inhibitor: similar
Sliced aggregates in mTeSR1, optionally 1 to 10 uM, unlike enzymatically passaged aggregates
  requirement of Y27632 ROCK inhibitor for expansion of sliced pluripotent stem cell aggregates: not required
